Measured values: patent US10882012B2, “Process for producing a nano resveratrol microemulsion system” (priority 2018, dated 2021)

Assay: Water solubility / water-dispersing ability
Type: physicochemical
Settings: dispersed in water, bottle A versus bottle B, visual

## Oc1ccc(C=Cc2cc(O)cc(O)c2)cc1 [known 99% resveratrol, resveratrol]
  Water-dispersing ability (FIG. 1): insoluble in water
